Data reported in ChEMBL document CHEMBL3988442, “University of Dundee, Small-Polar-MMV Screening Library” (2021).

Test system: Leishmania donovani
Experiment: Leishmania intramacrophage assay
Assay type: functional, organism-based
Settings: Leishmania donovani

| Compound | IC50 |
| --- | --- |
| FC(F)(F)c1cc(-c2cccs2)nc(N2CCN3CCCC3C2)n1 (centres undefined) | > 50.1 µM |
| Cc1nn(C)cc1-c1cc(C(F)(F)F)nc(NC2CCN(C)CC2)n1 | > 50.1 µM |
| Cc1cc(C(F)(F)F)nc(N2CCN3CCCC3C2)n1 (centres undefined) | > 50.1 µM |
| Cc1ccc(-c2cc(C(F)(F)F)nc(N3CCOCC3)n2)s1 | > 50.1 µM |
| Cc1nc(NCc2cccnc2)c2c(n1)c(C)nn2C | > 50.1 µM |
| CCCC(=O)N1CCC(c2ncc3c(n2)CCNC3)CC1 | > 50.1 µM |
| O=C(CC1CCCCC1)N1CCC(c2ncc3c(n2)CCNC3)CC1 | > 50.1 µM |
| O=C(CCC1CCCC1)N1CCC(c2ncc3c(n2)CCNC3)CC1 | > 50.1 µM |
| Cc1cc(C(F)(F)F)nc(N(C)Cc2c(C)noc2C)n1 | > 50.1 µM |
| O=C(NCC(F)(F)F)c1ccncc1 | > 50.1 µM |
| Cc1nc(NCc2nncn2C2CC2)c2c(CC(C)C)csc2n1 | > 50.1 µM |
| Cc1nc(NCc2nnc(C)n2C)c2c(CC(C)C)csc2n1 | > 50.1 µM |
| Cc1cc(N(C)CC2COc3ccccc3O2)nc(C)n1 (centres undefined) | > 50.1 µM |
| Cc1cc(N(C)CC2COc3ccccc3O2)nc(N)n1 (centres undefined) | > 50.1 µM |
| COc1cccc(C(=O)NCc2ccccc2S(=O)(=O)N(C)C)c1 | > 50.1 µM |
| COc1ccc(C)cc1CNC(=O)C1=NN(c2ccccc2)C(=O)CN1 | > 50.1 µM |
| COc1ncccc1CNC(=O)C1=NN(c2ccccc2)C(=O)CN1 | > 50.1 µM |
| N#Cc1cccc(CNC(=O)C2=NN(c3ccccc3)C(=O)CN2)c1 | > 50.1 µM |
| N#Cc1ccc(CNC(=O)C2=NN(c3ccccc3)C(=O)CN2)cc1 | > 50.1 µM |
| COc1ccc(CNC(=O)C2=NN(c3ccc(C)cc3)C(=O)CN2)cc1 | > 50.1 µM |
| NC(=O)C1CCN(c2cncc(-n3cccn3)n2)CC1 | > 50.1 µM |
| CN(C)C(=O)C1CCN(c2cncc(-n3cccn3)n2)CC1 | > 50.1 µM |
| COc1ccccc1C1(CNc2nnc(C)c(C)c2C#N)CCOCC1 | > 50.1 µM |
| Cc1nnc(NCC2(c3ccccc3)CCOCC2)c(C#N)c1C | > 50.1 µM |
| Cc1nnc(NCC2(c3ccccc3)CCC2)c(C#N)c1C | > 50.1 µM |
| CS(=O)(=O)N1CCN(Cc2csc(-c3ncccn3)n2)CC1 | > 50.1 µM |
| CC(C)CC(=O)N1CCN(Cc2csc(-c3ncccn3)n2)CC1 | > 50.1 µM |

| Compound | IC50 |
| --- | --- |
| CC(O)CN1CCN(Cc2csc(-c3ncccn3)n2)CC1 (centres undefined) | > 50.1 µM |
| CC(=O)N1CCCN(Cc2csc(-c3ncccn3)n2)CC1 | > 50.1 µM |
| CCC(=O)N1CCC2(C=C(C(=O)N(C)C)c3ccccc32)CC1 | > 50.1 µM |
| Cc1ccc2c(n1)N(Cc1cccnc1)CCN(Cc1cnn(C)c1)C2 | > 50.1 µM |
| OCCN1CCC(F)(F)C2(CCN(c3cccnc3)C2)C1 (centres undefined) | > 50.1 µM |
| Cc1cnc(N2CCc3onc(COc4cccnc4)c3C2)nc1 | > 50.1 µM |
| CN(C)C1COC2(CCN(Cc3ccncc3)CC2)C1 (centres undefined) | > 50.1 µM |
| CC(C)N1CCN(c2ccc3ccc(C(=O)NC4CCCC4)cn23)CC1 | > 50.1 µM |
| CCN(CC)c1ccc2ccc(C(=O)N(CCOC)CCOC)cn12 | > 50.1 µM |
| CN1CCN(c2ccc3ccc(C(=O)N4CCCO4)cn23)CC1 | > 50.1 µM |
| O=C(c1ccc2ccc(N3CCN(CC4CC4)CC3)n2c1)N1CCCO1 | > 50.1 µM |
| CN1CCN(c2ccc3ccc(C(=O)N4CCCCO4)cn23)CC1 | > 50.1 µM |
| O=C(c1cc[nH]n1)N1CCC(F)(F)C2(CCN(c3ccccn3)C2)C1 (centres undefined) | > 50.1 µM |
| O=C(c1c[nH]cn1)N1CCC(F)(F)C2(CCN(c3cnccn3)C2)C1 (centres undefined) | > 50.1 µM |
| O=C(c1cnccn1)N1CCC(F)(F)C2(CCN(c3ccccn3)C2)C1 (centres undefined) | > 50.1 µM |
| O=C(CO)N1CCC(F)(F)C2(CCN(c3ccccc3)C2)C1 (centres undefined) | > 50.1 µM |
| Cn1ccnc1CN1CCC(F)(F)C2(CCN(c3cnccn3)C2)C1 (centres undefined) | > 50.1 µM |
| Cn1cc(CN2CCC(F)(F)C3(CCN(c4ncc(F)cn4)C3)C2)cn1 (centres undefined) | > 50.1 µM |
| O=C(NC1COC2(CCN(Cc3ccccn3)CC2)C1)c1ccccn1 (centres undefined) | > 50.1 µM |
| Cc1ccc(N2CCC3(CN(CCO)CCC3(F)F)C2)nn1 (centres undefined) | > 50.1 µM |
| OCCN1CCC(F)(F)C2(CCN(c3cnccn3)C2)C1 (centres undefined) | > 50.1 µM |
| Cc1ccc(N2CCC3(CN(Cc4cccs4)CCC3(F)F)C2)nn1 (centres undefined) | > 50.1 µM |
| FC1(F)CCN(Cc2ccccn2)CC12CCN(c1ncccn1)C2 (centres undefined) | > 50.1 µM |
| c1cc(CN2CCC3(CC2)CC(N2CCCC2)CO3)co1 (centres undefined) | > 50.1 µM |
| CN(C)C1COC2(CCN(Cc3ccc4c(c3)OCO4)CC2)C1 (centres undefined) | > 50.1 µM |
| O=C(c1c[nH]cn1)N1CCC(F)(F)C2(CCN(c3ccccn3)C2)C1 (centres undefined) | > 50.1 µM |
| O=C(O)CN1CCC(F)(F)C2(CCN(c3ccccn3)C2)C1 (centres undefined) | > 50.1 µM |

| Compound | IC50 |
| --- | --- |
| Fc1ccc(CN2CCC(F)(F)C3(CCN(c4cnccn4)C3)C2)cc1 (centres undefined) | > 50.1 µM |
| Cn1cc(CN2CCC(F)(F)C3(CCN(c4ccccn4)C3)C2)cn1 (centres undefined) | > 50.1 µM |
| Cn1cc(CN2CCC(F)(F)C3(CCN(c4ncccn4)C3)C2)cn1 (centres undefined) | > 50.1 µM |
| Cn1cc(CN2CCC(F)(F)C3(CCN(c4cccnc4)C3)C2)cn1 (centres undefined) | > 50.1 µM |
| Cn1ncc2c1CN(Cc1ccc(F)cc1)CC2COCC1CC1 (centres undefined) | > 50.1 µM |
| CNC(=O)[C@@H]1C[C@H]2CN(Cc3ccco3)C[C@H]2N1C | > 50.1 µM |
| Cc1ccc(N2CCC3(CN(Cc4ccncc4)CCC3(F)F)C2)nn1 (centres undefined) | > 50.1 µM |
| Cn1ccnc1CN1CCC(F)(F)C2(CCN(c3cccnc3)C2)C1 (centres undefined) | > 50.1 µM |
| Cn1nc(COc2cccnc2)c2c1CCN(CC1CC1)C2 | > 50.1 µM |
| CN1CCN(C2COC3(CCN(Cc4ccsc4)CC3)C2)CC1 (centres undefined) | > 50.1 µM |
| CN1CCN(C2COC3(CCN(Cc4cccs4)CC3)C2)CC1 (centres undefined) | > 50.1 µM |
| c1cncc(COC[C@H]2CC[C@H]3[C@H](CCN3Cc3nccs3)O2)c1 | > 50.1 µM |
| COCCN(C)C1COC2(CCN(Cc3cccc(F)c3)CC2)C1 (centres undefined) | > 50.1 µM |
| CN1CCN(C2COC3(CCN(CC4CC4)CC3)C2)CC1 (centres undefined) | > 50.1 µM |
| FC1(F)CCN(Cc2cccnc2)CC12CCN(c1cnccn1)C2 (centres undefined) | > 50.1 µM |
| FC1(F)CCN(Cc2ccncc2)CC12CCN(c1cnccn1)C2 (centres undefined) | > 50.1 µM |
| CN(Cc1ccncc1)C1COC2(CCN(Cc3cccs3)CC2)C1 (centres undefined) | > 50.1 µM |
| FC1(F)CCN(Cc2ccncc2)CC12CCN(c1cccnc1)C2 (centres undefined) | > 50.1 µM |
| FC1(F)CCN(Cc2ccccn2)CC12CCN(c1cnccn1)C2 (centres undefined) | > 50.1 µM |
| CN1CCN(C2COC3(CCN(Cc4ccc(F)cc4)CC3)C2)CC1 (centres undefined) | > 50.1 µM |
| Cc1ccc(CN2CCC3(CC2)CC(N2CCN(C)CC2)CO3)s1 (centres undefined) | > 50.1 µM |
| CN(Cc1ccncc1)C1COC2(CCN(Cc3ccco3)CC2)C1 (centres undefined) | > 50.1 µM |
| CN(Cc1ccncc1)C1COC2(CCN(Cc3ccsc3)CC2)C1 (centres undefined) | > 50.1 µM |
| FC1(F)CCN(Cc2ccncc2)CC12CCN(Cc1ccccn1)C2 (centres undefined) | > 50.1 µM |
| FC1(F)CCN(Cc2cccnc2)CC12CCN(c1ccccn1)C2 (centres undefined) | > 50.1 µM |
| CN(Cc1ccncc1)C1COC2(CCN(Cc3ccccn3)CC2)C1 (centres undefined) | > 50.1 µM |

Now from value to compound:

| IC50 | Compound |
| --- | --- |
| > 50.1 µM | O=C(O)C1CCCN1c1nc(-c2ccc(Cl)c(Cl)c2)cc(C(F)(F)F)n1 (centres undefined) |
| > 50.1 µM | CCn1cnnc1CNc1nc(C)nc2scc(CC(C)C)c12 |
| > 50.1 µM | Cc1c(C(=O)O)sc2nc(Cc3ccccc3)nc(N)c12 |
| 15.8 µM | O=C(NCCCN1CCOCC1)c1ccc(-n2ccc3ccccc32)s1 |
| > 50.1 µM | O=C(NCCCN1CCCC1=O)c1ccc(-n2ccc3ccccc32)s1 |
| > 50.1 µM | Cn1nnc2c(sc3nc(N4CCOCC4)c4c(c32)CCC4)c1=O |
| > 50.1 µM | CCCn1nnc2c(sc3nc(N4CCOCC4)c4c(c32)CCC4)c1=O |
| > 50.1 µM | CC(C)n1nnc2c(sc3nc(N4CCOCC4)c4c(c32)CCC4)c1=O |
| > 50.1 µM | COCCN1CCN(c2ccc3ccc(C(=O)NC4CC4)cn23)CC1 |
| > 50.1 µM | COCCNC(=O)c1ccc2ccc(N3CCN(CC4CC4)CC3)n2c1 |
| > 50.1 µM | CN(C)C(=O)N1CCN(c2ccc3ccc(C(=O)NC4CC4)cn23)CC1 |
| > 50.1 µM | CN(C)C(=O)c1ccc2ccc(N3CCN(CC4CC4)CC3)n2c1 |
| > 50.1 µM | CN(C)CCNC(=O)c1ccc2ccc(N(C)CC3CC3)n2c1 |
| > 50.1 µM | CN(CC1CC1)c1ccc2ccc(C(=O)NC3CCCCC3)cn12 |
| > 50.1 µM | COCCNC(=O)c1ccc2ccc(N(C)CC3CC3)n2c1 |
| > 50.1 µM | CN(C)C(=O)CNC(=O)c1ccc2ccc(N(C)CC3CC3)n2c1 |
| > 50.1 µM | CN(CC1CC1)c1ccc2ccc(C(=O)NCCc3ccccc3)cn12 |
| > 50.1 µM | CCN(CC)c1ccc2ccc(C(=O)N(C)C)cn12 |
| > 50.1 µM | CCN(CC)c1ccc2ccc(C(=O)NC3CC3)cn12 |
| > 50.1 µM | CCNC(=O)c1ccc2ccc(N(CC)CC)n2c1 |
| > 50.1 µM | FC1(F)CCN(c2ccccc2)CC12CCN(c1ncccn1)C2 (centres undefined) |
| > 50.1 µM | Cn1cc(CN2CCC(F)(F)C3(CCN(c4cccc(F)c4)C3)C2)cn1 (centres undefined) |

| IC50 | Compound |
| --- | --- |
| 7.08 µM | CCOc1cc(CNCCCn2ccnc2)cc(Cl)c1OCC |
| 24.6 µM | CCOc1cc(CNCCCn2ccnc2)cc(Cl)c1OC |
| > 50.1 µM | CCOc1ccc(CNCCCn2ccnc2)cc1OC |
| > 50.1 µM | COc1ccc(Cl)cc1CNCCCn1ccnc1 |
| > 50.1 µM | COC(=O)c1sc2nc3c(c(C(F)(F)F)c2c1N)CN(C(C)=O)CC3 |
| > 50.1 µM | CC(=O)c1sc2nc3c(c(C(F)(F)F)c2c1N)CN(C(C)=O)CC3 |
| > 50.1 µM | CC(=O)N1CCc2nc3sc(C(N)=O)c(N)c3c(C(F)(F)F)c2C1 |
| > 50.1 µM | CNC(=O)c1sccc1N(C)S(=O)(=O)c1ccc(Cl)cc1 |
| > 50.1 µM | O=C(NCCN1CCOCC1)c1ccc(-n2ccc3ccccc32)s1 |
| 38.5 µM | CCOc1ccc(Cl)cc1CNCCCn1ccnc1 |
| > 50.1 µM | Cc1nn(C)cc1-c1cc(C(F)F)nc2sc(C(N)=O)c(N)c12 |
| > 50.1 µM | CCn1ncc(-c2cc(C(F)F)nc3sc(C(N)=O)c(N)c23)c1C |
| > 50.1 µM | Cc1c(-c2cc(C(F)F)nc3sc(C(N)=O)c(N)c23)cnn1C |
| > 50.1 µM | CCn1cc(-c2cc(C(F)F)nc3sc(C(N)=O)c(N)c23)c(C)n1 |
| > 50.1 µM | O=C(O)C1CCCN1c1nc(C2CC2)cc(C(F)(F)F)n1 (centres undefined) |
| > 50.1 µM | O=C(O)C1CCCN1c1nc(-c2ccc(Cl)cc2)cc(C(F)(F)F)n1 (centres undefined) |
| > 50.1 µM | CCn1nccc1CN(C)C(=O)Cn1cc2c(n1)c(C)nn2CC |
| > 50.1 µM | Cc1nn(C)cc1-c1cc(C(F)(F)F)nc(NC2CCCCC2)n1 |
| 13.6 µM | CN1CCN(CC(NCc2ccc(F)cc2)c2ccccc2)CC1 (centres undefined) |
| 27.5 µM | CCOc1c(CNCCCn2ccnc2)cc(Cl)cc1OC |
| 12.6 µM | CCOc1ccc(CNCCCn2ccnc2)cc1Cl |
| 24.4 µM | CCN(CC)c1ccc2ccc(C(=O)N3CCCCO3)cn12 |
